Active and inactive are the calls of the source. The rule behind the calls is not given here.
Each molecule was assayed against Peptidyl-prolyl cis-trans isomerase FKBP1A (Homo sapiens) (UniProt P62942) (assay: small-molecule binding to FKBP12 – biophysical, NMR detection (AID 608)). Conditions: purified FKBP12.
Sequence of Peptidyl-prolyl cis-trans isomerase FKBP1A (Homo sapiens) (P62942 whole entry, looked up): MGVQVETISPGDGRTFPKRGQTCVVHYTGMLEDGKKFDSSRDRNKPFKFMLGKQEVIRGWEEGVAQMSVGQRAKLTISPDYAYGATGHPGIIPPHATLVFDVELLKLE

| SMILES | Kd |
| --- | --- |
| COc1ccc(N/C(N)=N\c2nc(C)cc(C)n2)cc1 | > 4 mM (inactive) |
| O=C(NCc1cccnc1)c1ccccn1 | > 4 mM (inactive) |
| OC1CSc2ncnn2C1 (centres undefined) | > 4 mM (inactive) |
| Nc1nnc(-c2ccncc2)s1 | > 4 mM (inactive) |
| O=C(O[C@@H]1Cc2c(O)cc(O)cc2O[C@@H]1c1cc(=O)c(O)c2c(O)c(O)cc([C@H]3Oc4cc(O)cc(O)c4C[C@H]3O)c2c1)c1cc(O)c(O)c(O)c1 | > 4 mM (inactive) |
| O=C(C1CCCCC1)N1CCN(c2ccccc2F)CC1 | > 4 mM (inactive) |
| COc1ccc(CN2CCC(O)CC2)c(O)c1 | > 4 mM (inactive) |
| CC(=O)Nc1c(C#N)c(C(C)(C)C)cn1C | > 4 mM (inactive) |
| CNC(=O)c1ccccc1-c1ccccc1 | > 4 mM (inactive) |
| O=C(CSc1ncccn1)NCc1ccco1 | > 4 mM (inactive) |
| CCOC(=O)c1cc(C)n(-n2cnnc2)c1C | > 4 mM (inactive) |
| COCC(=O)Nc1ccc(C)c(Cl)c1 | > 4 mM (inactive) |
| CC(=O)NC(=S)Nc1ccccc1N1CCOCC1 | > 4 mM (inactive) |
| COc1ccccc1C(=O)NC1CCN(C)CC1 | > 4 mM (inactive) |
| CC(=O)NC(C)C12CC3CC(CC(C(=O)O)(C3)C1)C2 (centres undefined) | > 4 mM (inactive) |
| Cc1c(CO)cnn1-c1ccccc1 | > 4 mM (inactive) |
| Nc1ncnc2c1ncn2CCN1CCOCC1 | > 4 mM (inactive) |
| C=C1C([C@]2(C)C(CC(=O)OC)[C@@](C)(COC(C)=O)OC(=O)C[C@@H]2OC(C)=O)[C@@H](OC=O)[C@H](OC(=O)C(OC(C)=O)C(C)CC)[C@@]2(C)[C@H](c3ccoc3)CC(=O)C12O (some centres undefined) | > 4 mM (inactive) |
| COC(=O)c1ccc2nsnc2c1 | > 4 mM (inactive) |
| Cc1nc(-c2ccc(C(=O)N3CCOCC3)cc2)cs1 | > 4 mM (inactive) |
| NCCC(=O)N[C@@H](Cc1cnc[nH]1)C(=O)O | > 4 mM (inactive) |
| CC1CC[C@@]2(OC1)O[C@H]1CC3C4CC[C@@H]5C[C@@H](O)CC[C@]5(C)C4CC[C@]3(C)[C@H]1[C@@H]2C (some centres undefined) | > 4 mM (inactive) |
| COc1cc(C(=O)O[C@H]2CC[C@@]3(C)[C@@H]4CC[C@H]5[C@]6(O)C[C@H](O)[C@@]7(O)[C@@H](CN8C[C@@H](C)CC[C@H]8[C@@]7(C)O)[C@]6(O)C[C@@]53OC24O)cc(OC)c1OC | > 4 mM (inactive) |
| CSc1cccc(NC(=O)c2c(Cl)cnn2C)c1 | > 4 mM (inactive) |

| SMILES | Kd |
| --- | --- |
| Cc1cc(OCC(=O)N2CCOCC2)ccc1NC(=O)OCc1ccccc1 | > 4 mM (inactive) |
| CCC(=O)Nc1cc(C(C)C)c(O)cc1C | > 4 mM (inactive) |
| COc1ccc2nc(N)sc2c1 | > 4 mM (inactive) |
| CS(=O)(=O)CCCCN=C=S | > 4 mM (inactive) |
| C=C(C)[C@H]1Cc2c(ccc3c2O[C@@H]2COc4cc(OC)c(OC)cc4[C@@H]2C3=O)O1 | > 4 mM (inactive) |
| NC(=O)CSc1ccc(-c2ccccc2)nn1 | > 4 mM (inactive) |
| CC(C)C(=O)NCC(c1ccco1)N1CCOCC1 (centres undefined) | > 4 mM (inactive) |
| Nc1ccccc1N=C1CNC(=O)C1 | > 4 mM (inactive) |
| O=C(O)c1ccc2c(c1)OCCO2 | > 4 mM (inactive) |
| N=c1c2c3c(sc2ncn1N)CCCC3 | > 4 mM (inactive) |
| CC(=O)O[C@]1(C)CC[C@@]23CC1C(C)(C)[C@@H]2CC[C@H]3C | > 4 mM (inactive) |
| Cc1sc(CCc2nc(-c3ccccc3)c(C)s2)nc1-c1ccccc1 | inactive |
| NC(=O)CN1CC(c2ccccc2)CC1=O (centres undefined) | > 4 mM (inactive) |
| CC(=O)OC(C)(C)[C@@H]1Cc2cc3ccc(=O)oc3cc2O1 | > 4 mM (inactive) |
| O=C(Nc1ccccn1)C(=O)N1CCCC1 | > 4 mM (inactive) |
| O=C(O)c1cccc2nsnc12 | > 4 mM (inactive) |
| O=C(O)c1ccc(NCc2cccnc2)cc1 | > 4 mM (inactive) |
| c1ccc(-c2nnc3sc(-c4ccncc4)nn23)cc1 | > 4 mM (inactive) |
| O=C(NCc1ccco1)c1ccc(Br)s1 | > 4 mM (inactive) |
| N#Cc1cc2ccccc2nc1N | > 4 mM (inactive) |
| CN1CCN(Cc2cccnc2)CC1 | > 4 mM (inactive) |
| O=S(=O)(Nc1cc(Cl)cc(Cl)c1)N1CCOCC1 | inactive |
| CC(=O)N1CCN(c2ccc(O)cc2)CC1 | > 4 mM (inactive) |
| COC(=O)Nc1nnc(-c2ccncc2)s1 | > 4 mM (inactive) |

| SMILES | Kd |
| --- | --- |
| NC1CSCC1O (centres undefined) | > 4 mM (inactive) |
| CC1(C)SCC(C(=O)O)N1C=O (centres undefined) | > 4 mM (inactive) |
| CCOC(=O)C(C)c1n[nH]c(=O)c2ccccc12 (centres undefined) | > 4 mM (inactive) |
| O=C(c1ccccc1-c1ccccc1)N1CCOCC1 | > 4 mM (inactive) |
| O=C(Nc1ccon1)c1sc2cc(F)ccc2c1Cl | > 4 mM (inactive) |
| Cc1cc(=O)n2nc(-c3ccccc3)sc2n1 | > 4 mM (inactive) |
| O=C(NCC1CCNCC1)c1ccccn1 | > 4 mM (inactive) |
| Cc1ccccc1NC(=O)N1CCOCC1 | > 4 mM (inactive) |
| Cc1nc2ccccc2c(=O)n1CCCO | > 4 mM (inactive) |
| CC(NC(=O)c1cccnc1)c1ccc2c(c1)OCO2 (centres undefined) | > 4 mM (inactive) |
| CC(=O)OC1CCC2(O)CC1(C)CCC1C2CC1(C)C (centres undefined) | > 4 mM (inactive) |
| O=C1CSC(=O)N1CNc1ccccc1 | > 4 mM (inactive) |
| O=S(=O)(Nc1ccc2c(c1)oc1ccccc12)N1CCCCC1 | > 4 mM (inactive) |
| COc1cc(/C=C/C(=O)O)cc(OC)c1OC | > 4 mM (inactive) |
| Cn1cnnc1SCCCNC(=O)Nc1ncccn1 | > 4 mM (inactive) |
| CC(=O)N1CCC(NC2CCCCCC2)CC1 | > 4 mM (inactive) |
| CC(C)=CCC1=C(O)c2ccccc2C(=O)C1=O | > 4 mM (inactive) |
| Cc1cc(=O)cc(C)n1-c1ccccc1N1CCOCC1 | > 4 mM (inactive) |
| COC(=O)N1CCN(c2ccc(C(C)=O)cc2)CC1 | > 4 mM (inactive) |
| O=C1CC(C(=O)O)c2ccccc21 (centres undefined) | > 4 mM (inactive) |
| O=C(O)c1ccccc1C(=O)Nc1ccccc1 | > 4 mM (inactive) |
| CN1CCN(CC(=O)NC2CCCCC2)CC1 | > 4 mM (inactive) |
| Cc1oc(-c2ccccc2)nc1CC(=O)O | > 4 mM (inactive) |
| Cn1[nH]c2nc3[nH]n(C)c(=O)c3c(-c3ccccc3)c2c1=O | > 4 mM (inactive) |

| SMILES | Kd |
| --- | --- |
| COc1ccc(CN2CCNC(=O)C2CC(=O)O)cc1C (centres undefined) | > 4 mM (inactive) |
| C[C@H]1OC(O[C@H]2[C@@H](O)CC(O[C@H]3[C@@H](O)C[C@H](O[C@H]4CC[C@]5(C)C6CC[C@]7(C)[C@@H](C8=CC(=O)OC8)[C@@H](O)C[C@]7(O)[C@@H]6CC[C@@H]5C4)O[C@@H]3C)O[C@@H]2C)C[C@H](O)C1O (some centres undefined) | > 4 mM (inactive) |
| COc1ccc(-c2oc3ccccc3c(=O)c2O)cc1OC | > 4 mM (inactive) |
| O=C(CC1SC(=O)NC1=O)Nc1nccs1 (centres undefined) | > 4 mM (inactive) |
| Fc1ccc(Cn2c(-c3cscn3)nc3ccccc32)c(Cl)c1 | inactive |
| NC(=S)N1CCC(c2ccccc2)=N1 | > 4 mM (inactive) |
| O=[n+]1c(CO)c(CO)n([O-])c2ccccc21 | > 4 mM (inactive) |
| Cc1ccc(S(C)(=O)=O)s1 | > 4 mM (inactive) |
| CS(=O)(=O)N1CCN(C(=O)c2ccccc2)C1 | > 4 mM (inactive) |
| CCC(C)C(NC)C(=O)O (centres undefined) | > 4 mM (inactive) |
| CSc1cc(C)[nH]c(=O)n1 | > 4 mM (inactive) |
| Cc1cc(C(=O)NCc2cccnc2)cs1 | > 4 mM (inactive) |
| O=C(NCc1ccco1)c1nc2ncccn2n1 | > 4 mM (inactive) |
| O=C(Nc1cccc(Cl)c1)c1cnn2cccnc12 | > 4 mM (inactive) |
| CC(=O)CS(=O)(=O)c1ccccc1 | > 4 mM (inactive) |
| O=C(Nc1cnccn1)c1ccncc1 | > 4 mM (inactive) |
| Cc1cc(C)n2nc(-c3cccnc3)nc2n1 | > 4 mM (inactive) |
| Nc1ccc(N2CCOCC2)c(Cl)c1 | > 4 mM (inactive) |
| CC(C)(C)c1cc(N)n[nH]1 | > 4 mM (inactive) |
| Nc1cc(=O)[nH]c(SCC(=O)NC2CCCCC2)n1 | > 4 mM (inactive) |
| O=C(O)c1cc(=O)c2cccc(O)c2[nH]1 | > 4 mM (inactive) |
| CSc1n[nH]c(NCc2cccs2)n1 | > 4 mM (inactive) |
| Cc1c(N=CN2CCOCC2)c(=O)n(C)c(=O)n1C | > 4 mM (inactive) |
| CCOC(=O)c1ccc(Oc2ccc(C)nn2)cc1 | > 4 mM (inactive) |

| SMILES | Kd |
| --- | --- |
| O=C(Nc1ccc(N2CCOCC2)cc1)c1cnsn1 | > 4 mM (inactive) |
| c1cc2n(c1)CCNC2c1ccncc1 (centres undefined) | > 4 mM (inactive) |
| CSc1ncnc2nc[nH]c12 | > 4 mM (inactive) |
| NC1=NC(=O)/C(=C/c2ccc(O)c(Cl)c2)S1 | > 4 mM (inactive) |
| Cc1occc1C(=O)N1CCC2(CC1)OCCO2 | > 4 mM (inactive) |
| O=C(O)c1csc(-c2cccnc2)n1 | > 4 mM (inactive) |
| CN(Cc1nc2ccccc2n1C)S(C)(=O)=O | > 4 mM (inactive) |
| NC1=NC(=O)/C(=C/c2ccccc2[N+](=O)[O-])S1 | > 4 mM (inactive) |
| NC(=O)CSc1nnnn1-c1ccccc1 | > 4 mM (inactive) |
| CC(=O)NC1(NC(C)=O)CCN(C)CC1 | > 4 mM (inactive) |
| COC(=O)c1ccccc1NC(=O)c1cc[n+]([O-])cc1 | > 4 mM (inactive) |
| CNC(=O)n1ccc(C(=O)N2CCCCC2)n1 | > 4 mM (inactive) |
| O=c1cccc2n1CC1CC2CN2CCCC[C@@H]12 (some centres undefined) | > 4 mM (inactive) |
| COC1(C)CCC2OC2(C)CCC2C1CC2(C)C (centres undefined) | > 4 mM (inactive) |
| O=C(NN1C(=O)c2ccccc2C1=O)c1cccs1 | > 4 mM (inactive) |
| Fc1ccc(N2CCNCC2)cc1 | > 4 mM (inactive) |
| O=c1sc2ccccc2n1CN1CCOCC1 | > 4 mM (inactive) |
| COC(=O)c1ccc2ncccc2c1 | > 4 mM (inactive) |
| CC1CN=C(Nc2ccccc2)S1 (centres undefined) | > 4 mM (inactive) |
| O=S(=O)(c1cccc(Cl)c1)N1CCCC1 | > 4 mM (inactive) |
| CCCn1cnn2c(=O)cc(C)nc12 | > 4 mM (inactive) |
| CS(=O)(=O)Nc1ccc(C(=O)N2CCCCC2)cc1 | > 4 mM (inactive) |
| COCc1cc(=O)oc2cc(N)ccc12 | > 4 mM (inactive) |

Reference: PubChem BioAssay AID608 (Sanford-Burnham Center for Chemical Genomics, 2007)
